Active and inactive are the calls of the source. The rule behind the calls is not given here.
What was measured:
Tubulin = experiment: Inhibition of tubulin (unknown origin) polymerization incubated 15 mins prior to GTP addition by spectrophotometry; type: protein-complex assay, Homo sapiens
MCF7 = experiment: Cytotoxicity against human MCF7 cells after 96 hrs by Giemsa staining-based light microscopy; type: functional, cell-based; settings: MCF7, 96 h
Tubulin (Homo sapiens) [1] = molecular target: T1, Tubulin (Homo sapiens) (UniProt P68371+Q9H4B7+P0DPH7+P68366+Q13509+Q71U36+P04350+Q3ZCM7+P07437+P68363+Q9BQE3+Q6PEY2+Q13885+Q9BVA1+Q9BUF5); experiment: Displacement of [3H]colchicine from tubulin (unknown origin) at 5 uM after 10 mins; type: protein-complex assay
HeLa [2] = experiment: Cytotoxicity against human HeLa cells assessed as growth inhibition after 48 hrs by MTT method; type: functional, cell-based
HT-29 = experiment: Cytotoxicity against human HT-29 cells assessed as growth inhibition after 48 hrs by MTT method; type: functional, cell-based; settings: HT-29, 48 h
A549 = experiment: Cytotoxicity against human A549 cells assessed as growth inhibition after 48 hrs by MTT method; type: functional, cell-based; settings: A549, 48 h
NCI/ADR-RES = experiment: Cytotoxicity against human NCI/ADR-RES cells assessed as growth inhibition after 96 hrs by Giemsa staining-based light microscopy; type: functional, cell-based
[3] = Cytotoxicity against human MESSA cells assessed as growth inhibition after 72 hrs by CellTitre-Glo assay; type: functional, cell-based; settings: MES-SA
[4] = Cytotoxicity against human MESSA/DX5 cells assessed as growth inhibition after 72 hrs by CellTitre-Glo assay; type: functional, cell-based; settings: MES-SA/Dx5, 72 h
cells = settings: Homo sapiens, OVCAR-8, 96 h
Description: Cytotoxicity against human OVCAR8 cells assessed as growth inhibition after 96 hrs by Giemsa staining-based light microscopy

Tubulin (Homo sapiens) [5] = molecular target: T1, Tubulin (Homo sapiens); experiment: Inhibition of tubulin (unknown origin) polymerization at 20 uM incubated 15 mins prior to GTP addition by spectrophotometry; type: protein-complex assay
K562 [6] = experiment: Cell cycle arrest in human K562 cells assessed as mitotic index at 10 times IC50 (reference value: […] +/- […]%); type: functional
K562 [7] = experiment: Cytotoxicity against human K562 cells assessed as growth inhibition after 96 hrs by Giemsa staining-based light microscopy; type: functional, cell-based; settings: K562, 96 h
K562 [8] = experiment: Cell cycle arrest in human K562 cells assessed as mitotic index at 4 uM (reference value: 3 +/- 1%)
HeLa [9] = experiment: Cell cycle arrest in human HeLa cells assessed as accumulation at G2/M phase at 20 nM by propidium iodide staining-based flow cytometry; type: functional
HeLa [10] = experiment: Cell cycle arrest in human HeLa cells assessed as mitotic rounded-up phenotype at 20 nM by light microscopy; type: functional, cell-based
RD [11] = experiment: Cytotoxicity against human RD cells assessed as growth inhibition after 48 hrs by MTT method; type: functional, cell-based
HepG2 [12] = experiment: Cytotoxicity against human HepG2 cells assessed as growth inhibition after 48 hrs by MTT method; type: functional, cell-based; settings: HepG2, 48 h
[13] = Cell cycle arrest in human PC3 cells assessed as accumulation at G2/M phase at 500 nM after 24 hrs by propidium iodide staining-based flow cytometry; type: functional; settings: PC-3
RD [14] = experiment: Cell cycle arrest in human RD cells assessed as accumulation at G2/M phase at 500 nM after 24 hrs by propidium iodide staining-based flow cytometry; type: functional
[15] = Cell cycle arrest in human PC3 cells assessed as rounded cells at 500 nM after 24 hrs by propidium iodide staining-based flow cytometry; type: functional; settings: PC-3
RD [16] = experiment: Cell cycle arrest in human RD cells assessed as rounded cells at 500 nM after 24 hrs by propidium iodide staining-based flow cytometry; type: functional
[17] = Cell cycle arrest in human PC3 cells at 500 to 2000 nM incubated for 24 hrs followed by compound washout measured after 24 hrs; type: functional, cell-based; settings: PC-3
RD [18] = experiment: Cell cycle arrest in human RD cells at 1000 to 2000 nM incubated for 24 hrs followed by compound washout measured after 24 hrs; type: functional, cell-based
RD [19] = experiment: Cell cycle arrest in human RD cells at 500 nM incubated for 24 hrs followed by compound washout measured after 24 hrs; type: functional, cell-based
HepG2 [20] = experiment: Cell cycle arrest in human HepG2 cells at 500 to 2000 nM incubated for 24 hrs followed by compound washout measured after 24 hrs; type: functional, cell-based

Row | SMILES | IC50 (Tubulin) [nM] | inhibition (Tubulin (Homo sapiens) [1]) [%] | IC50 (MCF7) [nM] | also measured
1 | COc1cc(C(=O)c2ccn(-c3ccccc3N)c2)cc(OC)c1OC | 6800 | – | – | –
2 | COc1cccc(-n2ccc(C(=O)c3cc(OC)c(OC)c(OC)c3)c2)c1 | 1800 | 66 | 600 | IC50 (HeLa [2]): 1000 nM; IC50 (HT-29): 800 nM; IC50 (A549): 3000 nM; IC50 (NCI/ADR-RES): 90 nM; IC50 [3]: 262 nM; IC50 [4]: 471 nM; IC50 (cells): 250 nM
3 | COc1cc(C(=O)c2ccn(-c3cccc(OCc4ccccc4)c3)c2)cc(OC)c1OC | – | – | – | inhibition (Tubulin (Homo sapiens) [5]): inactive
4 | O=C(c1ccccc1)c1ccn(-c2ccccc2)c1 | – | – | – | inhibition (Tubulin (Homo sapiens) [5]): inactive
5 | COc1cc(C(=O)c2ccn(-c3cccc(NS(C)(=O)=O)c3)c2)cc(OC)c1OC | 860 | 84 | 60 | Activity (K562 [6]): 61%
6 | COc1cc(C(=O)c2ccn(-c3ccc([N+](=O)[O-])cc3)c2)cc(OC)c1OC | – | – | – | inhibition (Tubulin (Homo sapiens) [5]): inactive
7 | COc1ccc(-n2ccc(C(=O)c3cc(OC)c(OC)c(OC)c3)c2)cc1 | 1200 | 76 | 250 | IC50 (HeLa [2]): 150 nM; IC50 (HT-29): 200 nM; IC50 (A549): 80 nM; IC50 (NCI/ADR-RES): 17 nM; IC50 [3]: 63 nM; IC50 [4]: 87 nM; IC50 (cells): 60 nM
8 | COc1cc(C(=O)c2ccn(-c3ccccc3O)c2)cc(OC)c1OC | 1700 | 67 | 530 | –
9 | COc1cc(C(=O)c2ccn(-c3ccccc3[N+](=O)[O-])c2)cc(OC)c1OC | – | – | – | inhibition (Tubulin (Homo sapiens) [5]): inactive
10 | COc1ccc(C(=O)c2ccn(-c3cc(OC)c(OC)c(OC)c3)c2)cc1O | – | – | – | inhibition (Tubulin (Homo sapiens) [5]): inactive
11 | COc1cc(C(=O)c2ccn(-c3cccc(N4CCCC4)c3)c2)cc(OC)c1OC | 2500 | 23 | 16 | IC50 (K562 [7]): 950 nM; Activity (K562 [8]): 39%
12 | COc1cc(C(=O)c2ccn(-c3cccc(N4CCCCC4)c3)c2)cc(OC)c1OC | – | – | – | inhibition (Tubulin (Homo sapiens) [5]): inactive
13 | COc1cc(C(=O)c2ccn(S(=O)(=O)c3ccccc3)c2)cc(OC)c1OC | 16000 | – | – | –
14 | COc1ccc(-n2ccc(C(=O)c3cc(OC)c(OC)c(OC)c3)c2)cc1[N+](=O)[O-] | – | – | 830 | –
15 | COc1cc(C(=O)c2cc[nH]c2)cc(OC)c1OC | > 40000 | – | – | –
16 | CNc1cccc(-n2ccc(C(=O)c3cc(OC)c(OC)c(OC)c3)c2)c1 | 1000 | 92 | – | IC50 (K562 [7]): 30 nM; Activity (K562 [6]): 61%
17 | COc1cc(C(=O)c2ccn(-c3ccc(C)cc3)c2)cc(OC)c1OC | 900 | 95 | – | IC50 (K562 [7]): 30 nM; Activity (K562 [6]): 61%
18 | COc1cc(C(=O)c2ccn(C)c2)cc(OC)c1OC | > 40000 | – | – | –
19 | CC[C@]1(O)C[C@@H]2CN(CCc3c([nH]c4ccccc34)[C@@](C(=O)OC)(c3cc4c(cc3OC)N(C)[C@H]3[C@@](O)(C(=O)OC)[C@H](OC(C)=O)[C@]5(CC)C=CCN6CC[C@]43[C@@H]65)C2)C1 [VINBLASTINE] | – | – | – | IC50 [3]: 3 nM; IC50 [4]: 144 nM; Activity (HeLa [9]): Active; Activity (HeLa [10]): Active; IC50 (RD [11]): 52.5 nM; IC50 (HepG2 [12]): 80.7 nM; Activity [13]: Active; Activity (RD [14]): Active; Activity [15]: Active; Activity (RD [16]): Active; Activity [17]: inactive; Activity (RD [18]): inactive; Activity (RD [19]): Active; Activity (HepG2 [20]): inactive; IC50 (cells): 15 nM
20 | COc1cc(C(=O)c2ccn(Cc3ccccc3)c2)cc(OC)c1OC | > 40000 | – | – | –
21 | COc1cc(C(=O)c2ccn(-c3cccc(-n4cccc4)c3)c2)cc(OC)c1OC | 2500 | 27 | 43 | IC50 (K562 [7]): 90 nM; Activity (K562 [6]): 47%
22 | COc1cc(C(=O)c2ccn(-c3cccc(NC(C)C)c3)c2)cc(OC)c1OC | 2500 | 53 | 20 | IC50 (K562 [7]): 500 nM; Activity (K562 [8]): 69%
23 | COc1cc(-n2ccc(C(=O)c3ccccc3)c2)cc(OC)c1OC | – | – | – | inhibition (Tubulin (Homo sapiens) [5]): inactive
24 | CC[C@]1(O)C[C@H]2CN(CCc3c([nH]c4ccccc34)[C@@](C(=O)OC)(c3cc4c(cc3OC)N(C=O)[C@H]3[C@@](O)(C(=O)OC)[C@H](OC(C)=O)[C@]5(CC)C=CCN6CC[C@]43[C@@H]65)C2)C1 | – | – | – | Activity [13]: Active; Activity (RD [14]): Active; Activity [15]: Active; Activity (RD [16]): Active; Activity [17]: inactive; Activity (RD [18]): inactive; Activity (RD [19]): Active; Activity (HepG2 [20]): inactive
25 | COc1ccc(C(=O)c2ccn(-c3cc(OC)c(OC)c(OC)c3)c2)cc1OC(C)C | – | – | – | inhibition (Tubulin (Homo sapiens) [5]): inactive
26 | COc1cc(C(=O)c2ccn(-c3ccc(OC(C)C)cc3)c2)cc(OC)c1OC | – | – | – | inhibition (Tubulin (Homo sapiens) [5]): inactive
27 | COc1ccccc1-n1ccc(C(=O)c2cc(OC)c(OC)c(OC)c2)c1 | 2700 | 50 | 3500 | IC50 (HeLa [2]): 900 nM; IC50 (HT-29): 1000 nM; IC50 (A549): 1000 nM; IC50 (NCI/ADR-RES): 200 nM; IC50 [3]: 515 nM; IC50 [4]: 653 nM; IC50 (cells): 450 nM

The next lines start with results.

Row | IC50 (Tubulin) [nM] | inhibition (Tubulin (Homo sapiens) [1]) [%] | SMILES | IC50 (MCF7) [nM] | also measured
28 | 1700 | 48 | COc1ccc(-n2ccc(C(=O)c3cc(OC)c(OC)c(OC)c3)c2)cc1OC(C)C | – | IC50 (HeLa [2]): 800 nM; IC50 (HT-29): 800 nM; IC50 (A549): 1000 nM
29 | 1400 | 78 | COc1cc(C(=O)c2ccn(-c3ccc(F)cc3)c2)cc(OC)c1OC | 190 | –
30 | 1300 | 79 | COc1ccc(-n2ccc(C(=O)c3cc(OC)c(OC)c(OC)c3)c2)cc1O | 4500 | IC50 (HeLa [2]): 200 nM; IC50 (HT-29): > 10000 nM; IC50 (A549): > 10000 nM
31 | 2100 | 56 | COc1ccc(-n2ccc(C(=O)c3cc(OC)c(OC)c(OC)c3)c2)cc1OC | 100 | –
32 | 1200 | 86 | COc1cc(C(=O)c2ccn(-c3cccc(O)c3)c2)cc(OC)c1OC | 400 | –
33 | > 40000 | – | COc1cc(C(=O)c2ccn(-c3cc(OC)c(OC)c(OC)c3)c2)cc(OC)c1OC | – | –
34 | 2500 | 17 | COc1cc(C(=O)c2ccn(-c3cccc(OC(C)C)c3)c2)cc(OC)c1OC | 250 | –
35 | 2300 | 73 | COc1cc(C(=O)c2ccn(-c3ccc(Cl)cc3)c2)cc(OC)c1OC | 200 | –
36 | 1000 | 77 | COc1cc(C(=O)c2ccn(-c3ccccc3F)c2)cc(OC)c1OC | 1000 | –
37 | 13000 | – | COc1cc(C(=O)c2ccn(-c3ccccc3C)c2)cc(OC)c1OC | – | –
38 | 1300 | 81 | COc1cc(C(=O)c2ccn(-c3ccc(N)cc3)c2)cc(OC)c1OC | 15 | –
39 | – | 59 | COc1cc(C(=O)c2ccn(-c3ccc(O)cc3)c2)cc(OC)c1OC | 450 | –
40 | 8800 | – | COc1cc(C(=O)c2ccn(-c3ccccc3Cl)c2)cc(OC)c1OC | 4500 | –
41 | 1500 | 60 | COc1cc(C(=O)c2ccn(-c3cccc(N(C)C)c3)c2)cc(OC)c1OC | 1000 | –
42 | 950 | 79 | COc1cc(C(=O)c2ccn(-c3cccc(C)c3)c2)cc(OC)c1OC | 50 | –
43 | 2200 | 58 | COc1cc(C(=O)c2ccn(-c3cccc(Cl)c3)c2)cc(OC)c1OC | 600 | –
44 | 8900 | – | COc1cc(C(=O)c2ccn(-c3cccc([N+](=O)[O-])c3)c2)cc(OC)c1OC | – | –
45 | 1300 | 89 | COc1ccc(-n2ccc(C(=O)c3cc(OC)c(OC)c(OC)c3)c2)cc1N | 470 | –
46 | 2100 | 55 | COc1cc(C(=O)c2ccn(-c3cccc(F)c3)c2)cc(OC)c1OC | 1300 | –
47 | 6100 | – | COc1cc(C(=O)c2ccn(-c3ccccc3OC(C)C)c2)cc(OC)c1OC | – | –
